Where two headings read alike, the source gives them in different places.
Key:
Assay in all cases: Test E pre-/postemergence plant response
Assay type in all cases: in vivo
[1] = test system: downy bromegrass (Bromus tectorum); conditions: scale 0 to 100, read-out: Plant response rating, Bromegrass, Downy; for pest or weed control at 16 g/ha: 16 g ai/ha; for pest or weed control at 31 g/ha: 31 g ai/ha; for pest or weed control at 62 g/ha: 62 g ai/ha; for pest or weed control at 125 g/ha: 125 g ai/ha
Summary of the method: (§1)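 Visual scores on a 0–100 scale (100 = complete control) were assigned against untreated controls 7–21 days after treatment in a controlled environment. Compounds, formulated with solvent plus surfactant, were applied to pre-emergence silt-loam sowings or to 1- to 4-leaf plants (2–18 cm) in potting medium.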

[2] = test system: deadnettle (henbit deadnettle, Lamium amplexicaule); conditions: scale 0 to 100, read-out: Plant response rating, Deadnettle; for pest or weed control at 16 g/ha: 16 g ai/ha; for pest or weed control at 31 g/ha: 31 g ai/ha; for pest or weed control at 62 g/ha: 62 g ai/ha; for pest or weed control at 125 g/ha: 125 g ai/ha
Summary of the method: as §1

[3] = test system: windgrass (Apera spica-venti); conditions: scale 0 to 100, read-out: Plant response rating, Windgrass; for pest or weed control at 16 g/ha: 16 g ai/ha; for pest or weed control at 62 g/ha: 62 g ai/ha; for pest or weed control at 125 g/ha: 125 g ai/ha
Summary of the method: as §1

[4] = test system: chamomile (scentless chamomile, Matricaria inodora); conditions: Tripleurospermum inodorum, post-emergence, Postemergence, scale 0 to 100, read-out: Plant response rating, Chamomile
Summary of the method: as §1

[5] = test system: pigweed (Amaranthus retroflexus); conditions: scale 0 to 100, read-out: Plant response rating, Pigweed; for pest or weed control at 16 g/ha: 16 g ai/ha; for pest or weed control at 31 g/ha: 31 g ai/ha; for pest or weed control at 62 g/ha: 62 g ai/ha; for pest or weed control at 125 g/ha: 125 g ai/ha
Summary of the method: as §1

[6] = test system: field poppy (Papaver rhoeas); conditions: scale 0 to 100, read-out: Plant response rating, Field Poppy; for pest or weed control at 16 g/ha: 16 g ai/ha; for pest or weed control at 31 g/ha: 31 g ai/ha; for pest or weed control at 62 g/ha: 62 g ai/ha; for pest or weed control at 125 g/ha: 125 g ai/ha
Summary of the method: as §1

[7] = test system: green foxtail (Setaria viridis); conditions: scale 0 to 100, read-out: Plant response rating, Foxtail, Green; for pest or weed control at 16 g/ha: 16 g ai/ha; for pest or weed control at 31 g/ha: 31 g ai/ha; for pest or weed control at 62 g/ha: 62 g ai/ha; for pest or weed control at 125 g/ha: 125 g ai/ha
Summary of the method: as §1

[8] = test system: winter barley (Hordeum vulgare); conditions: scale 0 to 100, read-out: Plant response rating, Barley, Winter; for plant injury at 16 g/ha: 16 g ai/ha; for plant injury at 31 g/ha: 31 g ai/ha; for plant injury at 62 g/ha: 62 g ai/ha; for plant injury at 125 g/ha: 125 g ai/ha
Summary of the method: as §1

[9] = test system: blackgrass (Alopecurus myosuroides); conditions: scale 0 to 100, read-out: Plant response rating, Blackgrass; for pest or weed control at 16 g/ha: 16 g ai/ha; for pest or weed control at 31 g/ha: 31 g ai/ha; for pest or weed control at 62 g/ha: 62 g ai/ha; for pest or weed control at 125 g/ha: 125 g ai/ha
Summary of the method: as §1

[10] = test system: wild mustard (Sinapis arvensis); conditions: Brassica, scale 0 to 100, read-out: Plant response rating, Mustard, Wild; for pest or weed control at 16 g/ha: 16 g ai/ha; for pest or weed control at 31 g/ha: 31 g ai/ha; for pest or weed control at 62 g/ha: 62 g ai/ha; for pest or weed control at 125 g/ha: 125 g ai/ha
Summary of the method: as §1

[11] = test system: canarygrass (Phalaris minor); conditions: scale 0 to 100, read-out: Plant response rating, Canarygrass; for pest or weed control at 16 g/ha: 16 g ai/ha; for pest or weed control at 31 g/ha: 31 g ai/ha; for pest or weed control at 62 g/ha: 62 g ai/ha; for pest or weed control at 125 g/ha: 125 g ai/ha
Summary of the method: as §1

FC(F)c1cc(-c2ccccc2Oc2ncc(Cl)cn2)on1 [Compound 53, 5-chloro-2-[2-[3-(difluoromethyl)-5-isoxazolyl]phenoxy]pyrimidine]
75%: pest or weed control at 31 g/ha ([10]; post-emergence, Postemergence)
15%: pest or weed control at 31 g/ha ([1]; pre-emergence, Preemergence) | pest or weed control at 62 g/ha ([1]; pre-emergence, Preemergence) | pest or weed control at 125 g/ha ([1]; pre-emergence, Preemergence) | plant injury at 16 g/ha ([8]; pre-emergence, Preemergence)
0%: pest or weed control at 16 g/ha ([1]; post-emergence, Postemergence) | pest or weed control at 31 g/ha ([1]; post-emergence, Postemergence) | pest or weed control at 16 g/ha ([1]; pre-emergence, Preemergence) | pest or weed control at 16 g/ha ([3]; pre-emergence, Preemergence) | pest or weed control at 125 g/ha ([4]; 125 g ai/ha) | pest or weed control at 16 g/ha ([9]; post-emergence, Postemergence)
35%: pest or weed control at 62 g/ha ([3]; pre-emergence, Preemergence)
30%: pest or weed control at 31 g/ha ([2]; post-emergence, Postemergence) | pest or weed control at 16 g/ha ([5]; pre-emergence, Preemergence) | plant injury at 62 g/ha ([8]; pre-emergence, Preemergence) | pest or weed control at 125 g/ha ([9]; pre-emergence, Preemergence)
5%: pest or weed control at 62 g/ha ([1]; post-emergence, Postemergence) | pest or weed control at 125 g/ha ([1]; post-emergence, Postemergence) | pest or weed control at 16 g/ha ([3]; post-emergence, Postemergence) | pest or weed control at 31 g/ha ([3]; post-emergence, 31 g ai/ha, Postemergence) | pest or weed control at 16 g/ha ([4]; 16 g ai/ha) | pest or weed control at 31 g/ha ([4]; 31 g ai/ha) | pest or weed control at 62 g/ha ([4]; 62 g ai/ha) | plant injury at 16 g/ha ([8]; post-emergence, Postemergence) | plant injury at 31 g/ha ([8]; post-emergence, Postemergence) | plant injury at 62 g/ha ([8]; post-emergence, Postemergence) | pest or weed control at 31 g/ha ([9]; post-emergence, Postemergence) | pest or weed control at 16 g/ha ([11]; post-emergence, Postemergence)
40%: pest or weed control at 125 g/ha ([11]; post-emergence, Postemergence)
90%: pest or weed control at 62 g/ha ([5]; post-emergence, Postemergence) | pest or weed control at 125 g/ha ([5]; post-emergence, Postemergence) | pest or weed control at 16 g/ha ([10]; pre-emergence, Preemergence)
80%: pest or weed control at 62 g/ha ([6]; post-emergence, Postemergence) | pest or weed control at 125 g/ha ([6]; post-emergence, Postemergence)
85%: pest or weed control at 16 g/ha ([5]; post-emergence, Postemergence) | pest or weed control at 31 g/ha ([5]; post-emergence, Postemergence)
55%: pest or weed control at 125 g/ha ([7]; pre-emergence, Preemergence)
65%: pest or weed control at 125 g/ha ([2]; post-emergence, Postemergence) | pest or weed control at 125 g/ha ([2]; pre-emergence, Preemergence) | pest or weed control at 31 g/ha ([6]; post-emergence, Postemergence) | pest or weed control at 16 g/ha ([10]; post-emergence, Postemergence) | pest or weed control at 62 g/ha ([11]; pre-emergence, Preemergence)
100%: pest or weed control at 62 g/ha ([5]; pre-emergence, Preemergence) | pest or weed control at 125 g/ha ([5]; pre-emergence, Preemergence) | pest or weed control at 16 g/ha ([6]; pre-emergence, Preemergence) | pest or weed control at 31 g/ha ([6]; pre-emergence, Preemergence) | pest or weed control at 62 g/ha ([6]; pre-emergence, Preemergence) | pest or weed control at 125 g/ha ([6]; pre-emergence, Preemergence) | pest or weed control at 31 g/ha ([10]; pre-emergence, Preemergence) | pest or weed control at 62 g/ha ([10]; pre-emergence, Preemergence) | pest or weed control at 125 g/ha ([10]; pre-emergence, Preemergence)
60%: pest or weed control at 62 g/ha ([2]; post-emergence, Postemergence) | pest or weed control at 16 g/ha ([6]; post-emergence, Postemergence)
10%: pest or weed control at 16 g/ha ([2]; pre-emergence, Preemergence) | pest or weed control at 31 g/ha ([2]; pre-emergence, Preemergence) | pest or weed control at 62 g/ha ([3]; post-emergence, Postemergence) | pest or weed control at 16 g/ha ([7]; post-emergence, Postemergence) | pest or weed control at 31 g/ha ([7]; post-emergence, Postemergence) | pest or weed control at 62 g/ha ([7]; post-emergence, Postemergence) | pest or weed control at 16 g/ha ([7]; pre-emergence, Preemergence) | pest or weed control at 31 g/ha ([7]; pre-emergence, Preemergence) | plant injury at 125 g/ha ([8]; post-emergence, Postemergence) | plant injury at 31 g/ha ([8]; pre-emergence, Preemergence) | pest or weed control at 62 g/ha ([9]; post-emergence, Postemergence) | pest or weed control at 16 g/ha ([9]; pre-emergence, Preemergence) | pest or weed control at 31 g/ha ([9]; pre-emergence, Preemergence) | pest or weed control at 31 g/ha ([11]; post-emergence, Postemergence) | pest or weed control at 16 g/ha ([11]; pre-emergence, Preemergence)
25%: pest or weed control at 125 g/ha ([7]; post-emergence, Postemergence) | plant injury at 125 g/ha ([8]; pre-emergence, Preemergence) | pest or weed control at 125 g/ha ([9]; post-emergence, Postemergence) | pest or weed control at 62 g/ha ([9]; pre-emergence, Preemergence) | pest or weed control at 62 g/ha ([11]; post-emergence, Postemergence)
20%: pest or weed control at 16 g/ha ([2]; post-emergence, Postemergence) | pest or weed control at 125 g/ha ([3]; post-emergence, Postemergence) | pest or weed control at 31 g/ha ([5]; pre-emergence, Preemergence) | pest or weed control at 62 g/ha ([7]; pre-emergence, Preemergence) | pest or weed control at 31 g/ha ([11]; pre-emergence, Preemergence)
50%: pest or weed control at 62 g/ha ([2]; pre-emergence, Preemergence) | pest or weed control at 125 g/ha ([3]; pre-emergence, Preemergence)
95%: pest or weed control at 62 g/ha ([10]; post-emergence, Postemergence) | pest or weed control at 125 g/ha ([10]; post-emergence, Postemergence) | pest or weed control at 125 g/ha ([11]; pre-emergence, Preemergence)

Reference: US10131652B2, “Pyrimidinyloxy benzene derivatives as herbicides” (E. I. DU PONT DE NEMOURS AND COMPANY, priority 2014, dated 2018)
